Test results from patent US20160257697A1, “THIOPHENE-SUBSTITUTED TETRACYCLIC COMPOUNDS AND METHODS OFUSE THEREOF FOR THE TREATMENT OF VIRAL DISEASES” (priority 2013, published 2016).
Where two headings read alike, the source gives them in different places.

Legend:
Assay in all cases: microbe, parasite or virus in culture
Format in all cases: cell-based, Hepatitis C virus (HCV)
Conditions in all cases: Replicon Assay A
HCV replicon 1AY93H = test system: HCV replicon 1AY93H
Method: (§1) To measure cell-based anti-HCV activity of compounds of the present invention, two complimentary assays were employed using various replicons. In the first assay (“Replicon Assay A”), replicon cells were seeded at 2000 cells/well in 384-well 384-well flat bottom tissue culture treated clear bottom plate (Corning 3707) in the presence of the test compound. […] The final concentration of DMSO was 0.5%. Fetal bovine serum was 5%, in the assay media. Cells were harvested on day 3 by removing media and washing the cells with a suitable wash buffer. The cells are lysed with the addition of 1× Qiagen lysis buffer (Cat #1062731). The replicon RNA level was measured using real time PCR (TaqMan® EZ RT-PCR, Applied Biosystems 403028) with the following primers and probes: […]
(§2) Cyclophilin RNA was used as endogenous control and was amplified in the same reaction as NS5B (multiplex PCR). The real-time RT-PCR reactions were run on ABI PRISM 7900HT Sequence Detection System using the following program: 50° C. for 2 minutes, 60° C. for 30 minutes, 95° C. for 5 minutes, 40 cycles of 94° C. for 20 sec, 55° C. for 1 minutes.
(§3) The amount of HCV replicon RNA per cell is quantified using a linear regression curve for a known nanogram (ng) amount of HCV replicon total RNA. This is established by plotting the Cycle Threshold values (Ct) from the Neo probe and primer set versus the log (ng) for each HCV replicon total RNA standard. The amount of HCV RNA for each replicon sample is calculated by taking the sample's Ct value, minus the line intercept, divided by the slope of the line. Similarly, the amount of Cyclophilin mRNA per cell is also quantified using a linear regression curve for a known nanogram (ng) amount of HCV replicon total RNA. Again, this is established by plotting the Cycle Threshold values (Ct) from the Cyclophilin probe and primer set versus the log (ng) for each HCV replicon total RNA standard.
(§4) Data for replicons 1A, 1AY93H and 2B were obtained using Replicon Assay A and data for replicons 1AQ30D and 1B were obtained using Replicon Assay B.

HCV replicon 2B = test system: HCV replicon 2B
Method: as §1, §2, §3, §4

HCV replicon 1A = test system: HCV replicon 1A
Method: as §1, §2, §3, §4

[1] = read-out: 1A Y93H IC50, replicon 1AY93H
[2] = read-out: 2B IC50, HCV replicon 2B
[3] = Hepatitis C virus, read-out: 1A Y93H IC50 (nM), replicon 1AY93H
[4] = Hepatitis C virus, read-out: 2B IC50 (nM), replicon 2B
[5] = Hepatitis C virus, HCV replicon 1A

Question: What does the source list for `COC(=O)N[C@H](C(=O)N1CCC[C@H]1c1ncc(-c2cc(F)c3c(c2)OC(c2sc(C4CC4)cc2F)n2c-3cc3cc(-c4cnc([C@@H]5CCCN5C(=O)[C@@H](NC(=O)OC)C(C)C)[nH]4)ccc32)[nH]1)C(C)C` (single isomer, unassigned) [Compound 66]?
Answer: IC50 (HCV replicon 1AY93H; [1]): 0.13 nM; IC50 (HCV replicon 2B; read-out: 2B IC50, replicon 2B): 0.23 nM

Question: Which IC50 (HCV replicon 1AY93H; [1]) does the source give for `CCc1ccc(C2Oc3cc(-c4cnc([C@@H]5CCCN5C(=O)[C@@H](NC(=O)OC)C(C)C)[nH]4)cc(F)c3-c3cc4cc(-c5cnc([C@@H]6C[C@@H](F)CN6C(=O)C(NC(=O)OC)C6CCOC(C)(C)C6)[nH]5)ccc4n32)s1` (single isomer, unassigned) [Compound 255] here?
Answer: 0.084 nM

Question: And the IC50 (HCV replicon 2B; read-out: 2B IC50, replicon 2B)?
Answer: 3.63 nM

Question: Which IC50 (HCV replicon 2B; [2]) does the source give for `COCc1ccc(C2Oc3cc(-c4cnc([C@@H]5CCCN5C(=O)[C@@H](NC(=O)OC)C(C)C)[nH]4)cc(F)c3-c3cc4cc(-c5cnc([C@@H]6CCCN6C(=O)[C@@H](NC(=O)OC)[C@@H]6C[C@@H](C)O[C@@H](C)C6)[nH]5)ccc4n32)s1` (single isomer, unassigned) [Compound 534] here?
Answer: 0.02 nM

Question: What about the IC50 (HCV replicon 1A; HCV replicon 1A) of the same compound?
Answer: 6.92 pM

Question: How did the IC50 (HCV replicon 1AY93H; read-out: 1A Y93H IC50, HCV replicon 1A Y93H) turn out when `COC(=O)N[C@H](C(=O)N1CCC[C@H]1c1ncc(-c2cc(F)c3c(c2)OC(c2cc(C)c(C)s2)n2c-3cc3cc(-c4cnc([C@@H]5C[C@H]6C[C@H]6N5C(=O)[C@@H](NC(=O)OC)C(C)C)[nH]4)ccc32)[nH]1)C(C)C` (single isomer, unassigned) [Compound 509] was run?
Answer: 6.12 nM

Question: What about the IC50 (HCV replicon 2B; [2]) of the same compound?
Answer: 6.82 nM

Question: For `COC(=O)NC(C(=O)N1CCC[C@H]1c1ncc(-c2ccc3c(c2)cc2n3C(c3ccc(C4CC4)s3)Oc3cc(-c4cnc([C@@H]5CCCN5C(=O)[C@@H](NC(=O)OC)C(C)C)[nH]4)cc(F)c3-2)[nH]1)C1CCO[C@@H](C)C1` (single isomer, unassigned) [Compound 402], which IC50 (HCV replicon 2B; read-out: 2B IC50, replicon 2B) is on record?
Answer: 0.0054 nM

Question: What about the IC50 (HCV replicon 1A; replicon 1A) of the same compound?
Answer: 3.4 pM

Question: Which IC50 (HCV replicon 1AY93H; [3]) does the source give for `COC(=O)N[C@H](C(=O)N1CCC[C@H]1c1ncc(-c2cc(F)c3c(c2)OC(c2ccc(CCC4CC4)s2)n2c-3cc3cc(-c4cnc([C@@H]5CCCN5C(=O)[C@@H](NC(=O)OC)C(C)C)[nH]4)ccc32)[nH]1)C(C)C` (single isomer, unassigned) [Compound 91] here?
Answer: 0.28 nM

Question: And the IC50 (HCV replicon 2B; [4])?
Answer: 3.14 nM

Question: Which results are given for `COC(=O)NC(C(=O)N1CCC[C@H]1c1ncc(-c2cc(F)c3c(c2)OC(c2ccc(C4CC4)s2)n2c-3cc3cc(-c4cnc([C@@H]5C[C@H]6C[C@H]6N5C(=O)[C@@H](NC(=O)OC)C(C)C)[nH]4)ccc32)[nH]1)C(C)(C)F` (single isomer, unassigned) [Compound 99]?
Answer: IC50 (HCV replicon 1AY93H; [1]): 0.53 nM; IC50 (HCV replicon 2B; read-out: 2B IC50, replicon 2B): 1.55 nM

Question: Which results are given for `COC(=O)NC(C(=O)N1[C@@H]2C[C@@H]2C[C@H]1c1ncc(-c2ccc3c(c2)cc2n3C(c3ccc(C(C)C)s3)Oc3cc(-c4cnc([C@@H]5CCCN5C(=O)[C@@H](NC(=O)OC)C(C)C)[nH]4)cc(F)c3-2)[nH]1)C1C[C@@H](C)O[C@@H](C)C1` (single isomer, unassigned) [Compound 283]?
Answer: IC50 (HCV replicon 1AY93H; [3]): 0.192 nM; IC50 (HCV replicon 2B; [4]): 0.68 nM

Question: Which results are given for `COC(=O)NC(C(=O)N1[C@@H]2C[C@@H]2C[C@H]1c1ncc(-c2ccc3c(c2)cc2n3C(c3ccc(C(F)F)s3)Oc3cc(-c4cnc([C@@H]5CCCN5C(=O)[C@@H](NC(=O)OC)C(C)C)[nH]4)cc(F)c3-2)[nH]1)C1C[C@@H](C)O[C@@H](C)C1` (single isomer, unassigned) [Compound 286]?
Answer: IC50 (HCV replicon 2B; read-out: 2B IC50, replicon 2B): 0.018 nM; IC50 (HCV replicon 1A; Hepatitis C virus, replicon 1A): 1 pM

Question: Which IC50 (HCV replicon 2B; read-out: 2B IC50, replicon 2B) does the source give for `COC(=O)NC(C(=O)N1CCC[C@H]1c1ncc(-c2ccc3c(c2)cc2n3C(c3ccc(C4CC4)s3)Oc3cc(-c4cnc([C@@H]5CCCN5C(=O)[C@@H](NC(=O)OC)C(C)C)[nH]4)cc(F)c3-2)[nH]1)C1CCO[C@@H](C)C1` (single isomer, unassigned) [Compound 401] here?
Answer: 0.0064 nM

Question: And the IC50 (HCV replicon 1A; replicon 1A)?
Answer: 1.8 pM

Question: What does the source list for `COC(=O)N[C@H](C(=O)N1CCC[C@H]1c1ncc(-c2cc(F)c3c(c2)OC(c2ccc(C(CF)CF)s2)n2c-3cc3cc(-c4cnc([C@@H]5CCCN5C(=O)[C@@H](NC(=O)OC)C(C)C)[nH]4)ccc32)[nH]1)C(C)C` (single isomer, unassigned) [Compound 121]?
Answer: IC50 (HCV replicon 2B; read-out: 2B IC50, replicon 2B): 0.17 nM; IC50 (HCV replicon 1A; replicon 1A): 1.2 pM

Question: With `COC(=O)NC(C(=O)N1CCC[C@H]1c1ncc(-c2ccc3c(c2)cc2n3C(c3ccc(C4CC4)s3)Oc3cc(-c4cnc([C@@H]5CCCN5C(=O)[C@@H](NC(=O)OC)C(C)C)[nH]4)cc(F)c3-2)[nH]1)C1CCOC2(CC2)C1` (single isomer, unassigned) [Compound 177] as the compound, how does the IC50 (HCV replicon 2B; read-out: 2B IC50, replicon 2B) read?
Answer: 0.016 nM

Question: What about the IC50 (HCV replicon 1A; replicon 1A) of the same compound?
Answer: 1.4 pM

Question: With `COC(=O)N[C@H](C(=O)N1CCC[C@H]1c1ncc(-c2cc(F)c3c(c2)OC(c2ccc(C(C)CF)s2)n2c-3cc3cc(-c4cnc([C@@H]5CCCN5C(=O)[C@@H](NC(=O)OC)C(C)C)[nH]4)ccc32)[nH]1)C(C)C` (single isomer, unassigned) [Compound 333] as the compound, how does the IC50 (HCV replicon 2B; read-out: 2B IC50, replicon 2B) read?
Answer: 0.0314 nM

Question: What about the IC50 (HCV replicon 1A; replicon 1A) of the same compound?
Answer: 1 pM

Question: What does the source list for `COCc1ccc(C2Oc3cc(-c4cnc([C@@H]5CCCN5C(=O)[C@@H](NC(=O)OC)C(C)C)[nH]4)cc(F)c3-c3cc4cc(-c5c[nH]c([C@@H]6CCCN6C(=O)[C@@H](NC(=O)OC)C(C)C)n5)ccc4n32)s1` (single isomer, unassigned) [Compound 512]?
Answer: IC50 (HCV replicon 2B; [2]): 0.15 nM; IC50 (HCV replicon 1A; HCV replicon 1A): 2.82 pM

Question: `COC(=O)N[C@H](C(=O)N1CCC[C@H]1c1ncc(-c2cc(F)c3c(c2)OC(c2ccc(C4CCCCC4)s2)n2c-3cc3cc(-c4cnc([C@@H]5CCCN5C(=O)[C@@H](NC(=O)OC)C(C)C)[nH]4)ccc32)[nH]1)C(C)C` (single isomer, unassigned) [Compound 528] was tested. Which IC50 (HCV replicon 2B; [2]) did it give?
Answer: 8.81 nM

Question: What about the IC50 (HCV replicon 1A; [5]) of the same compound?
Answer: 8.83 pM

Question: Which results are given for `COC(=O)N[C@H](C(=O)N1CCC[C@H]1c1ncc(-c2cc(F)c3c(c2)OC(c2ccc(C4CC4(F)F)s2)n2c-3cc3cc(-c4cnc([C@@H]5CCCN5C(=O)[C@@H](NC(=O)OC)C(C)C)[nH]4)ccc32)[nH]1)C(C)C` (single isomer, unassigned) [Compound 118]?
Answer: IC50 (HCV replicon 2B; read-out: 2B IC50, replicon 2B): 0.97 nM; IC50 (HCV replicon 1A; Hepatitis C virus, replicon 1A): 1.2 pM

Question: Which results are given for `COC(=O)NC(C(=O)N1CCC[C@H]1c1ncc(-c2ccc3c(c2)cc2n3C(c3ccc(C4CC4)s3)Oc3cc(-c4cnc([C@@H]5CCCN5C(=O)[C@@H](NC(=O)OC)C(C)C)[nH]4)cc(F)c3-2)[nH]1)C1CCOC2(CC2)C1` (single isomer, unassigned) [Compound 179]?
Answer: IC50 (HCV replicon 2B; read-out: 2B IC50, replicon 2B): 4.63 nM; IC50 (HCV replicon 1A; replicon 1A): 1.2 pM

Question: How did the IC50 (HCV replicon 2B; [2]) turn out when `COC(=O)NC(C(=O)N1[C@@H]2C[C@@H]2C[C@H]1c1ncc(-c2ccc3c(c2)cc2n3C(c3cc4ccccc4s3)Oc3cc(-c4cnc([C@@H]5CCCN5C(=O)[C@@H](NC(=O)OC)C(C)C)[nH]4)cc(F)c3-2)[nH]1)C1C[C@@H](C)O[C@@H](C)C1` (single isomer, unassigned) [Compound 647] was run?
Answer: 0.153 nM

Question: And the IC50 (HCV replicon 1A; [5])?
Answer: 2.6 pM

Question: With `COC(=O)NC(C(=O)N1CCC[C@H]1c1ncc(-c2ccc3c(c2)cc2n3C(c3ccc(C4CC4)s3)Oc3cc(-c4cnc([C@@H]5C[C@H]6C[C@H]6N5C(=O)[C@@H](NC(=O)OC)C(C)C)[nH]4)cc(F)c3-2)[nH]1)C1C[C@@H](C)O[C@@H](C)C1` (single isomer, unassigned) [Compound 536] as the compound, how does the IC50 (HCV replicon 2B; [2]) read?
Answer: 0.0219 nM

Question: And the IC50 (HCV replicon 1A; [5])?
Answer: 2.72 pM

Question: What does the source list for `COC(=O)NC(C(=O)N1CCC[C@H]1c1ncc(-c2ccc3c(c2)cc2n3C(c3ccc(C4CC4)s3)Oc3cc(-c4cnc([C@@H]5CCCN5C(=O)[C@@H](NC(=O)OC)C(C)C)[nH]4)cc(F)c3-2)[nH]1)C1CCOC2(CC2)C1` (single isomer, unassigned) [Compound 176]?
Answer: IC50 (HCV replicon 2B; read-out: 2B IC50, replicon 2B): 0.046 nM; IC50 (HCV replicon 1A; Hepatitis C virus, replicon 1A): 1.1 pM

Question: How did the IC50 (HCV replicon 2B; read-out: 2B IC50, replicon 2B) turn out when `[2H]C(C)(C)C(NC(=O)OC)C(=O)N1CCC[C@H]1c1ncc(-c2cc(F)c3c(c2)OC(c2ccc(C4CC4)s2)n2c-3cc3cc(-c4cnc([C@@H]5CCCN5C(=O)[C@@H](NC(=O)OC)C(C)C)[nH]4)ccc32)[nH]1` (single isomer, unassigned) [Compound 30] was run?
Answer: 33.3 nM

Question: And the IC50 (HCV replicon 1A; replicon 1A)?
Answer: 51.3 pM
